Measured values from ChEMBL document CHEMBL1157697, “Novel ester and acid derivatives of the 1,5-diarylpyrrole scaffold as anti-inflammatory and analgesic agents. Synthesis and in vitro and in vivo biological evaluation” (J Med Chem, 2010).

What was measured:
[1] = biological target: Prostaglandin G/H synthase 1 (Homo sapiens, UniProt P23219); test: Inhibition of COX1 in human whole blood assessed as thromboxane B2 production by RIA; type: tissue-based
[2] = Clearance in Sprague-Dawley rat at 10 mg/kg, iv; type: ADME, organism-based; set-up: dose 10 mg/kg, route intravenous; settings: in vivo
[3] = biological target: T1, Prostaglandin G/H synthase 1 (Mus musculus, UniProt P22437)
T1 sequence (P22437 whole entry): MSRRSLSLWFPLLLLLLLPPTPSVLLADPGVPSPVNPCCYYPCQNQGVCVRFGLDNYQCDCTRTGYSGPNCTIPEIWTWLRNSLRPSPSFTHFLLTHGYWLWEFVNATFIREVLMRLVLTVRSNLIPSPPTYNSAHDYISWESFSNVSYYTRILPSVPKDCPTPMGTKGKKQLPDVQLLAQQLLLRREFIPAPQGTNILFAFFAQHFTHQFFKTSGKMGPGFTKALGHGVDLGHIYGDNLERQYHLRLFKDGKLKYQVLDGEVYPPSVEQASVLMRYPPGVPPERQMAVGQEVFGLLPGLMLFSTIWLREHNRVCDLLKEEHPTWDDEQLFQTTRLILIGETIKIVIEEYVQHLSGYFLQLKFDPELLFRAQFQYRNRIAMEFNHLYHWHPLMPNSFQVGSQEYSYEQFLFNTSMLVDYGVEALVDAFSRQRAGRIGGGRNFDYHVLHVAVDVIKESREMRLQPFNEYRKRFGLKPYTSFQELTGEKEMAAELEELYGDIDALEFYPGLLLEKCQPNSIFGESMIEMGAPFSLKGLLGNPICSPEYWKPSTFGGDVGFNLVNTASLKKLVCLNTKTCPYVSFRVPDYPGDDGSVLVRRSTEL
Description: Inhibition of COX1-dependent PGE2 production in LPS-stimulated mouse J774 cells by RIA

[4] = tested on: Rattus norvegicus; test: Rate of blood flow in Sprague-Dawley rat at 10 mg/kg, iv; type: ADME, organism-based; set-up: dose 10 mg/kg, route intravenous; settings: in vivo
[5] = species on record: Mus musculus; test: Toxicity in Swiss mouse assessed as number of falls in 30 seconds after 30 mins by rotarod test; type: organism-based; settings: in vivo, 0.5 h
[6] = tested on: Mus musculus; test: Analgesic activity against acetic acid-induced po dosed mouse abdominal constriction assessed as writhing; settings: Abdomen
[7] = biological target: T2, Prostaglandin G/H synthase 2 (Homo sapiens, UniProt P35354); test: Inhibition of COX2 in human whole blood assessed as inhibition of LPS-induced PGE2 production by RIA; type: tissue-based
T2 sequence (P35354 whole entry): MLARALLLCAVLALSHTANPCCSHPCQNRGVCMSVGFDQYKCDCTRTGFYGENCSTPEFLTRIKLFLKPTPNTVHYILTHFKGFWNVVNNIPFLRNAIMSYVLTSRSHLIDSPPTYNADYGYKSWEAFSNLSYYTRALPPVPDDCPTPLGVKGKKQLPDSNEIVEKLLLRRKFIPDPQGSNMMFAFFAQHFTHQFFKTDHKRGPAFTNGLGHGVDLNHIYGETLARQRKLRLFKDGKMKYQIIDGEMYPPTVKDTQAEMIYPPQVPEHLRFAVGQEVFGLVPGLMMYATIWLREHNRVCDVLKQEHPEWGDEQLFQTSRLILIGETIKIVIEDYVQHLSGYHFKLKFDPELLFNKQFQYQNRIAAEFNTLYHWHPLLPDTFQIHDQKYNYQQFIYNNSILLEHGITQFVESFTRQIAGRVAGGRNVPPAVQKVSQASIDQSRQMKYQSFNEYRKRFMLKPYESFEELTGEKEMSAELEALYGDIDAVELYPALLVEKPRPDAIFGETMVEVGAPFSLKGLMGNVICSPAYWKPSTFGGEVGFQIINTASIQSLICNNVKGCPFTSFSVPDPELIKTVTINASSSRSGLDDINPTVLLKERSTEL

[8] = species on record: Rattus norvegicus; test: Analgesic activity against zymosan-induced hyperalgesia in rat assessed maximum effect measured up to 6 hrs
[9] = species on record: Mus musculus; test: Toxicity in Swiss mouse assessed as number of falls in 30 seconds after 60 mins by rotarod test; type: organism-based; settings: in vivo, 1 h
[10] = Oral bioavailability in Sprague-Dawley rat at 10 mg/kg; type: ADME, organism-based; settings: in vivo
[11] = biological target: T3, Prostaglandin G/H synthase 2 (Mus musculus, UniProt Q05769)
T3 sequence (Q05769 whole entry): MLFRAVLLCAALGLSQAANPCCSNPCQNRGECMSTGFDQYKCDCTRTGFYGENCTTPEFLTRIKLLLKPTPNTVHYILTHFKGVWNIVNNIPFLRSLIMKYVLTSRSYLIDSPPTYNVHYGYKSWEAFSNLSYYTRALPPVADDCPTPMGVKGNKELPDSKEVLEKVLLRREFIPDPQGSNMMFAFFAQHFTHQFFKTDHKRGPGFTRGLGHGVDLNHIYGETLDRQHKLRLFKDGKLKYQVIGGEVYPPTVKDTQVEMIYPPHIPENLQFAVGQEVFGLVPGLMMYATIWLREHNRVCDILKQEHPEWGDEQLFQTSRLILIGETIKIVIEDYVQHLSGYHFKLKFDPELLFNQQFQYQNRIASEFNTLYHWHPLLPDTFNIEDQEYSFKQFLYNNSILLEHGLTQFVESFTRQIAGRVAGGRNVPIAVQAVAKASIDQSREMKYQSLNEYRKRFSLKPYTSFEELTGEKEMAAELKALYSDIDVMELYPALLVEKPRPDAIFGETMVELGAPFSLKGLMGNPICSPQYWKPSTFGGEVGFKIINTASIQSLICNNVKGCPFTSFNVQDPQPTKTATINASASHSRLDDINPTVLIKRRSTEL
Description: Inhibition of COX2-dependent PGE2 production in LPS-stimulated mouse J774 cells by RIA

[12] = species on record: Mus musculus; test: Toxicity in Swiss mouse assessed as number of falls in 30 seconds after 15 mins by rotarod test; type: organism-based; settings: in vivo, 0.25 h
[13] = tested on: Rattus norvegicus; test: Antiinflammatory activity against carrageenan-induced paw edema rat inflammatory model assessed as paw pressure at 10 mg/kg, po after 60 mins; type: functional
[14] = tested on: Rattus norvegicus; test: Antiinflammatory activity against carrageenan-induced paw edema rat inflammatory model assessed as paw pressure at 10 mg/kg, po after 30 mins; type: functional
[15] = tested on: Rattus norvegicus; test: Antiinflammatory activity against carrageenan-induced paw edema rat inflammatory model assessed as paw pressure at 10 mg/kg, po after 120 mins; type: functional
[16] = tested on: Rattus norvegicus; test: Antiinflammatory activity against carrageenan-induced paw edema rat inflammatory model assessed as paw volume at 10 mg/kg, po after 60 mins; type: functional
[17] = Metabolic stability in human liver microsomes at 10 uM; type: ADME, Microsome; settings: read-out: Stability
[18] = tested on: Rattus norvegicus; test: Antiinflammatory activity against carrageenan-induced paw edema rat inflammatory model assessed as suppression of paw edema at 10 mg/kg, po after 60 mins; type: functional
[19] = species on record: Mus musculus; test: Toxicity in Swiss mouse assessed as number of falls in 30 seconds after 45 mins by rotarod test; type: organism-based; settings: in vivo, 0.75 h
[20] = Volume of distribution in Sprague-Dawley rat at 10 mg/kg, iv; type: ADME, organism-based; set-up: dose 10 mg/kg, route intravenous; settings: in vivo
[21] = species on record: Rattus norvegicus; test: Analgesic activity against zymosan-induced hyperalgesia in rat assessed maximum effect measured up to 2 hrs
[22] = Metabolic stability in human liver microsomes at 0.1 uM; type: ADME, Microsome; settings: read-out: Stability

Chain of Prostaglandin G/H synthase 1 (Homo sapiens, UniProt P23219) (P23219 whole entry): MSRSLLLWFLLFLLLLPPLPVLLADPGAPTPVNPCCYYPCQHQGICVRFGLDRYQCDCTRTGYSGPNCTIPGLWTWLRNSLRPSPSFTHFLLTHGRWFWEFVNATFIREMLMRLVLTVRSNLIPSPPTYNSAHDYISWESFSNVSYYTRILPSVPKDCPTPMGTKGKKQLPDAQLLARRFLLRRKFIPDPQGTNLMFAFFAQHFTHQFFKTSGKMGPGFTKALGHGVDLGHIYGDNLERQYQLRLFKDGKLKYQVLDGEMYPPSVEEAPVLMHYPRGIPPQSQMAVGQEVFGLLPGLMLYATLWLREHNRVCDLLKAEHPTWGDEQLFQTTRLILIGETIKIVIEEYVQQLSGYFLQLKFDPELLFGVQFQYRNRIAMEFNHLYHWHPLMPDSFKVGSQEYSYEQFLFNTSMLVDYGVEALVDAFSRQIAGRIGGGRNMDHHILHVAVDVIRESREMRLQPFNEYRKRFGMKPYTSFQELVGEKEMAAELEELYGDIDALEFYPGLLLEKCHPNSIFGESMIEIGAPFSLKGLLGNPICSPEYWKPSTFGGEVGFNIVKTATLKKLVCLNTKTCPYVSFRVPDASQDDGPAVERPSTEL

## Cc1c(CC(=O)OC(C)C)cc(-c2ccc(S(C)(=O)=O)cc2)n1-c1ccccc1
[1]
  IC50: 20 µM
[2]
  clearance: 33.3 mL/min
[3]
  IC50: > 100 µM
[4]
  LBF: 0.8 L/h
[5]
  Activity: Non-toxic
[6]
  Activity: Dose-dependent effect
[7]
  IC50: 2.5 µM
[8]
  Activity: 70%
[9]
  Activity: Non-toxic
[10]
  bioavailability: 42%
[11]
  IC50: 0.0073 µM
[12]
  Activity: Non-toxic
[13]
  Activity: 51.8 g
[14]
  Activity: 56.2 g
[15]
  Activity: 48.8 g
[16]
  Activity: 1.26 mL
[17]
  remaining at 10 µM: 1%
[18]
  Activity: 100%
[19]
  Activity: Non-toxic
[20]
  Vd: 5.6 L
[21]
  Activity: 75%
[22]
  remaining at 0.1 µM: 11%
